Patent US5760001A, “Cytokine restraining agents and methods of use in pathologies and conditions associated with altered cytokine levels” (Trega Biosciences, Inc., priority 1995, dated 1998)
Values joined by “and” are separate entries in the source; they are usually repeats but may differ in a detail not shown here. Equal entries are not always repeated. Square brackets hold non-standard residues; d marks the D form. Peptide text beside a SMILES is read from it.

Legend:
adult female Balb/c mice [1] = assay: LPS-induced lethality, oral (gavage) dosing; type: in vivo; conditions: control mice 0%
Procedure: The LPS-induced lethality studies were performed based on information reported by Rivier et al., supra, 1989. Adult female Balb/c mice were provided food and water ad libitum. Mice were administered 150 μg or 300 μg EX-2, EX-3, EX-5 or EX-6 in 100 μl saline by gavage every 4 hr for 40 hr (total doses of 1.65 mg and 3.3 mg, respectively). Control mice received 100 μl saline, alone. Immediately following the first dose of cytokines restraining agent or saline, 0.6 mg LPS in 0.2 ml saline was administered by IP injection.

TNF-α [2] = assay: LPS-induced TNF-α levels, oral (gavage) dosing; type: in vivo, mice
Procedure: The ability of orally administered cytokine restraining agents to reduce LPS-induced TNF-α levels also was examined. Balb/c female mice (20 g) were administered 150 μg or 300 μg EX-2, EX-3, EX-5 or EX-6 in 100 μl saline by gavage. Control mice received 100 μl saline, alone. One mn later, 0.1 mg LPS was administered by IP injection. Samples were collected and TNF-α levels were determined as described in Example III, above.
The mean TNF-α levels in the mice from each group (n=9-20) was determined and the percent reduction in TNF-α levels was calculated.

Male Shelton rabbits = assay: Morphine-induced respiratory depression; type: in vivo; conditions: 10 + 20 + 20 μg/kg/rabbit iv; at end of experiment (80 min)
Procedure: Male Shelton rabbits (3-4 kg) were restrained and fitted around the thorax, just behind the front limbs, with a respiration transducer (Model F-RCT; Grass Instruments; Quincy Mass.). The transducer was connected to a grass polygraph via an EKG cable. An intravenous line was established for drug administration by cannulating the marginal ear vein using a 25G butterfly needle.
Rabbit breathing was allowed to stabilize, then. morphine sulfate (2 mg/kg in 0.5 ml saline) was administered by intravenous (iv) injection and respiratory rate and depth were monitored for 10 min. A second dose of morphine was administered, then, after 10 min, EX-2 or EX-3 (10 μg/kg in 0.5 ml saline) was administered, iv, and rabbits were monitored for 20 min. Two additional doses of EX-2 or EX-3 (20 μg/kg in 1.0 ml saline) were administered at 20 min intervals, i.e., 40 min and 60 min after the first morphine injection.
Results were calculated as the percent change from baseline values and are expressed as the difference of the mean value of the treated group minus the mean value of the control group at the end of the experiment (80 min).

TNF-α [3] = assay: Reduction of LPS-induced TNF levels in mice (IP dosing); type: in vivo; conditions: 150 μg/mouse IP before LPS 5 mg/kg IP; vs untreated control mice
Procedure: Balb/c female mice weighing approximately 20 g were placed into two groups, a control group and a treated group. Five mg/kg of LPS in 0.9% saline was administered by intraperitoneal (IP) injection into the control mice. Mice in the treated group were first injected IP with 30 μg EX-2 or 150 μg EX-3 in saline, then, one mn after EX-2 or EX-3 was administered, the mice received LPS as described for the control group.
Blood samples were collected from the orbital sinus of treated and control mice at various times up to four hr after LPS was administered. The plasma was separated by centrifugation at 3000×g for 5 min, then diluted with four volumes of 1× phosphate buffer saline (pH 7.4) containing 1% bovine serum albumin. A 100 μl sample of serum was assayed by ELISA for TNF-α (Genzyme; Cambridge Mass.).
The mean (±SEM) TNF-α level in six mice from each group was determined and the percent reduction in TNF levels was calculated.

adult female Balb/c mice [4] = assay: Carageenan-induced paw swelling; type: in vivo; conditions: 1 μg/mouse; measured at the 2 hr time point
Procedure: Carageenan-induced paw swelling was induced using a modification of the methods of Hiltz and Lipton, Peptides 11:979-982 (1990); Vinegar et al., Fed. Proc. 46:118-1.26 (1987); and Vinegar et al., J. Pharmacol. Expt. Therap. 166:96-103 (1969), each of which is incorporated herein by reference. Briefly, adult female Balb/c mice were anesthetized by IP injection of 7 mg/kg ketoamine and 0.6 mg/kg rompun. Foot pad thickness was measured using a spring loaded micrometer (Swiss Precision Instruments). Foot pad thickness was expressed in units of 1/100 inch. After baseline measurements were obtained, mice were injected into a hind foot pad with either 0.2 ml physiologic saline (control) or varying doses of EX-2 or EX-3 in 0.2 ml saline (treated). The first injection was followed immediately by injection of 0.02 ml of 0.15% κ-carageenan (Sigma Chemical Co.; St. Louis, Mo.).
Hind foot pad thickness was measured hourly for six hr, the change in thickness was determined and the percent reduction in swelling due to treatment with EX-2 was calculated.

female Balb/c mice = assay: Arachidonic acid-induced ear swelling; type: in vivo; conditions: 100 μg/mouse IP 30 min prior to AA; 60 min after AA application
Procedure: Experiments were performed using female Balb/c mice weighing 18-23 grams. Saline or 100 μg EX-2 or EX-3 was administered IP, 30 min prior to topical application of arachidonic acid (AA). A 10 μl pipet was used to apply 10 μl AA solution (100 mg/ml ethanol; Calbiochem-Novabiochem; San Diego Calif.) to the inner and outer surfaces of the right ear of each mouse. Ten μl ethanol, alone, was applied to the inner and outer surface of the left ear of each mouse.
Ear thickness was measured with a hand-held spring loaded caliper immediately before and 60 min after AA application. Increase in ear thickness was calculated by subtracting the change observed in the control ear from the change observed in AA-treated ear. The value for each group (saline and control) is the average of the swelling observed in the individual mice in each group. The percent reduction of swelling is based on the swelling observed in the saline control group.

adult female Balb/c mice [5] = assay: LPS-induced lethality (IP dosing); type: in vivo; conditions: 11 × 300 μg/mouse IP (3.3 mg), every 4 hr; 0.6 mg LPS; vs control mice
Procedure: These experiments were performed based on information reported by Rivier et al., Endocrinology 125:2800-2805 (1989), which is incorporated herein by reference. Adult female Balb/c mice were provided food and water ad libitum. Mice were injected IP every four hr for 40 hr with 30 to 300 μg EX-2, EX-3 or EX-4 in 0.2 ml saline (treated group) or with 0.2 ml saline, alone (control group) (10 mice per group). Immediately following the first injection, 0.6 mg LPS endotoxin in 0.2 ml saline was administered to each mouse. Following LPS injection, EX-2 or saline was administered to the treated mice or the control mice, respectively, every 4 hr for 36 hr.

[6] = 300 μg by gavage before 0.1 mg LPS IP

Compound	percent reduction in TNF-α levels (TNF-α [2]; [6]) [%]	Reduction in TNF levels (TNF-α [3]) [%]	Inhibition of LPS-induced Lethality (increase in survival) (adult female Balb/c mice [5]) [%]	further results
CC(=O)N[C@@H](Cc1c[nH]cn1)C(=O)N[C@H](Cc1ccccc1)C(=O)N[C@@H](CCCNC(=N)N)C(=O)N[C@H](Cc1c[nH]c2ccccc12)C(=O)NCC(N)=O [EX-5, Ac-His-(D)Phe-Arg-(D)Trp-Gly-NH2] (Ac-H[dF]R[dW]G-NH2)	44			increase in survival (LPS-induced lethality) (adult female Balb/c mice [1]; 3.3 mg total (300 μg every 4 hr for 40 hr)): 63% and 44%
CC(=O)N[C@H](C(=O)N[C@@H](CCC(N)=O)C(=O)N[C@@H](Cc1c[nH]cn1)C(=O)N[C@H](Cc1ccccc1)C(=O)N[C@@H](CCCNC(=N)N)C(=O)N[C@H](Cc1c[nH]c2ccccc12)C(=O)NCC(N)=O)C1CCCCC1 [EX-3, Ac-(cyclohexyl)Gly-Gln-His-(D)Phe-Arg-(D)Trp-Gly-NH2]	40	56	86	Reduction in Morphine-induced Respiratory Depression (Male Shelton rabbits): 65%; percent reduction in TNF-α levels (TNF-α [2]; 150 μg by gavage before 0.1 mg LPS IP): 49%; Reduction in Carageenan-induced Paw Swelling (adult female Balb/c mice [4]): 49%; Reduction in arachidonic acid-induced Ear Swelling (female Balb/c mice): 62%
CC(=O)N[C@H](Cc1ccccc1)C(=O)N[C@@H](CCCNC(=N)N)C(=O)N[C@H](Cc1c[nH]c2ccccc12)C(N)=O [EX-4, Ac-(D)Phe-Arg-(D)Trp-NH2]		53	75	
CC(=O)N[C@@H](Cc1c[nH]cn1)C(=O)N[C@H](Cc1ccccc1)C(=O)N[C@@H](CCCNC(=N)N)C(=O)N[C@H](Cc1c[nH]c2ccccc12)C(N)=O [EX-6, Ac-His-(D)Phe-Arg-(D)Trp-NH2]				increase in survival (LPS-induced lethality) (adult female Balb/c mice [1]; 1.65 mg total (150 μg every 4 hr for 40 hr)): 68%
